Molecular target: NLRP3 inflammasome (Homo sapiens, UniProt Q96P20)
Assay: Inhibition of IL-1β production in LPS stimulated (alternative pathway) human whole blood
Format: cell-based
Description: Inflammasome activation and whole blood assays were essentially carried out as described earlier. Details can be found in the supplementary information section accompanying this publication. A protocol for blood draws from healthy volunteers and use of the blood in preclinical assays was approved by Western Institutional Review Board, Inc (Puyallup, WA, USA). Informed consent was obtained from each donor prior to the first blood draw.
Cell viability was determined by addition of an equal volume of CellTiter-Glo® 2.0 reagent (Promega) to the remaining cells/supernatant in each well. Intracellular Caspase-1 activity was measured using the Caspase-Glo® assay (Promega) according to the manufacturer’s instructions. The biochemical capsase-1 assay was conducted at Reaction Biology Corporation (Malvern, USA). Human IL-1β, IL-1α, and TNFα and mouse IL-1β were measured in cell culture supernatants using homogeneous time resolved fluorescence assay kits (HTRF, Cisbio, Codolet, France). Human IL-18 was measured in cell culture supernatants using an ELISA kit (R&D Systems, Minneapolis, MN, USA). Plasma IL-1β concentrations were determined by Quantikine® ELISA (R&D Systems, Minneapolis, MN). […]
flagellin, prepared in Opt iMEM and combined with Lipofectamine 2000. […]

Chain of NLRP3 inflammasome (Q96P20 whole entry): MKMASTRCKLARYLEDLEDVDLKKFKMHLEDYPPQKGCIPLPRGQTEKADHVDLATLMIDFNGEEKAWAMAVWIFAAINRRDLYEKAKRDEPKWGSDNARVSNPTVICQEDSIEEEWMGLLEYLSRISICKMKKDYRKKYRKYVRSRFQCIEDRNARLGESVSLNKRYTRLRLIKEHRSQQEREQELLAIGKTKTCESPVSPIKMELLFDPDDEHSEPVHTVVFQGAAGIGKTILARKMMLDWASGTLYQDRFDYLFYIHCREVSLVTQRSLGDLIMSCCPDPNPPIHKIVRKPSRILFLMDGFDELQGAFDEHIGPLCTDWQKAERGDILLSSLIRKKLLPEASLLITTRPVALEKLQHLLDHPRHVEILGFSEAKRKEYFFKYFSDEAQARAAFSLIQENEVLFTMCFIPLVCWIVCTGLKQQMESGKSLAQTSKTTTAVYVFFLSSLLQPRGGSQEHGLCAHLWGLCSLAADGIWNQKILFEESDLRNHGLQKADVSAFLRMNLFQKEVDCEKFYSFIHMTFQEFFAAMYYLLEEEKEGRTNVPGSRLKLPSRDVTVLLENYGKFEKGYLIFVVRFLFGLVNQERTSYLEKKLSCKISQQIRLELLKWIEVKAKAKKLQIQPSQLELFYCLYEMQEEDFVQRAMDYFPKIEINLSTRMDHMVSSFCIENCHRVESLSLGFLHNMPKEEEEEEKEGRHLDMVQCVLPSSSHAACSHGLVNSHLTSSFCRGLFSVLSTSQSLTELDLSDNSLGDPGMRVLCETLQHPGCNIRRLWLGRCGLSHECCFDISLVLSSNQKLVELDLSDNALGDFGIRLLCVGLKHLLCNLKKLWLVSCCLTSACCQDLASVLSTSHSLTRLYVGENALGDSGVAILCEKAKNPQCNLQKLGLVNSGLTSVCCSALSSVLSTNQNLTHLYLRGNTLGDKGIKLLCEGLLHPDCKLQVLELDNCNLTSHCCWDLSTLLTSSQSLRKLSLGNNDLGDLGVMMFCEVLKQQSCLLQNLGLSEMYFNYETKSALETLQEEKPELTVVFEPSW

CO[C@@H]1COc2c(S(=O)(=O)NC(=O)Nc3c4c(cc5c3CCC5)CCC4)cnn2C1 [JT002]
IC50 (Human whole blood, LPS only (alternative pathway), read-out: Geo Av IC50, IL-1β): 32 nM
IC50 in human whole blood, alternative (LPS) versus canonical (LPS + ATP) NLRP3 pathway activation (how much lower the alternative pathway IC50 is): threefold more potent

Reference: article PMC10439952, “JT002, a small molecule inhibitor of the NLRP3 inflammasome for the treatment of autoinflammatory disorders” (Scientific Reports, 2023)
